# From ChEMBL document CHEMBL1201862, “PubChem BioAssay data set” (2004)
#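 Growth conditions: 96-well plates. Treatment: test compound, 48 hours, 5 concentrations. Analysis: linear interpolation between bracketing concentrations; unreached endpoints set to highest concentration. GI50: concentration for 50% inhibition of growth.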 The source made the active and inactive calls. No stated cut-off is given here; in the data, active = GI50 up to about 1.1 µM and inactive = higher.
# Tests used:
# Assay in all cases: NCI-60 cell line screen, 48 h
# A498 = system: A498
# BT-549 = system: BT-549
# COLO 205 = system: COLO 205
# EKVX = system: EKVX
# HOP-62 = system: HOP-62
# HOP-92 = system: HOP-92
# HT-29 = system: HT-29
# Hs-578T = system: Hs-578T
# IGROV-1 = system: IGROV-1
# K562 = system: K562
# M14 = system: M14
# Malme-3M = system: Malme-3M
# NCI-H522 = system: NCI-H522
# SF-539 = system: SF-539
# SK-MEL-28 = system: SK-MEL-28
# SN12C = system: SN12C
# SNB-19 = system: SNB-19
# TK-10 = system: TK-10
# DU-145 = system: DU-145
# OVCAR-5 = system: OVCAR-5
Structure (SMILES),GI50 (A498),GI50 (BT-549),GI50 (COLO 205),GI50 (EKVX),GI50 (HOP-62),GI50 (HOP-92),GI50 (HT-29),GI50 (Hs-578T),GI50 (IGROV-1),GI50 (K562),GI50 (M14),GI50 (Malme-3M),GI50 (NCI-H522),GI50 (SF-539),GI50 (SK-MEL-28),GI50 (SN12C),GI50 (SNB-19),GI50 (TK-10),GI50 (DU-145),GI50 (OVCAR-5)
CN(Cc1cnc2c(n1)C(N)=NN(N)N2)c1ccc(C(=O)NC(CCP(=O)(O)O)C(=O)O)cc1 (configuration not stated),36.5 µM (inactive),16 µM (inactive),> 31.5 µM (inactive),> 43.3 µM (inactive),> 100 µM (inactive),> 100 µM (inactive),9.51 µM (inactive),> 100 µM (inactive),4.86 µM (inactive),> 100 µM (inactive),4.53 µM (inactive),> 23.8 µM (inactive),26.4 µM (inactive),3.47 µM (inactive),> 85.7 µM (inactive),> 63.2 µM (inactive),> 30.7 µM (inactive),> 100 µM (inactive),–,–
Cc1c(C)c2c(c(N)c1C#N)C(=O)N(Nc1ccccc1)C2=O,–,> 100 µM (inactive),> 100 µM (inactive),43.9 µM (inactive),–,28.5 µM (inactive),–,46.7 µM (inactive),42.7 µM (inactive),> 100 µM (inactive),> 100 µM (inactive),51.5 µM (inactive),29.2 µM (inactive),40.1 µM (inactive),> 100 µM (inactive),> 100 µM (inactive),39.1 µM (inactive),28.1 µM (inactive),> 100 µM (inactive),> 100 µM (inactive)
Oc1ccc(Cl)cc1CN1CCN(Cc2cc(Cl)ccc2O)C1,16 µM (inactive),–,1.45 µM (inactive),1.57 µM (inactive),0.617 µM (active),1.15 µM (inactive),1.87 µM (inactive),3.82 µM (inactive),1.89 µM (inactive),1.39 µM (inactive),0.553 µM (active),2.17 µM (inactive),3.31 µM (inactive),0.946 µM (active),1.65 µM (inactive),1.11 µM (active),2.86 µM (inactive),1.55 µM (inactive),1.92 µM (inactive),5.09 µM (inactive)
CCCc1cc(=O)oc2c3c(c4c(c12)OC(C)(C)CC4)O[C@H](C)[C@@H](C)[C@H]3O,–,13.4 µM (inactive),15.7 µM (inactive),12.6 µM (inactive),16.6 µM (inactive),18.3 µM (inactive),10 µM (inactive),22.6 µM (inactive),15.6 µM (inactive),2.52 µM (inactive),16.1 µM (inactive),21.9 µM (inactive),–,21.4 µM (inactive),–,16.4 µM (inactive),16.6 µM (inactive),–,16.1 µM (inactive),16.7 µM (inactive)
CCOC(CN(C)C(=O)OCC(Cl)(Cl)Cl)OCC,–,82.8 µM (inactive),27.7 µM (inactive),> 100 µM (inactive),> 100 µM (inactive),33.9 µM (inactive),79.1 µM (inactive),29.7 µM (inactive),> 100 µM (inactive),39.9 µM (inactive),69 µM (inactive),–,47.8 µM (inactive),> 100 µM (inactive),> 100 µM (inactive),> 100 µM (inactive),> 100 µM (inactive),> 100 µM (inactive),> 100 µM (inactive),> 100 µM (inactive)
CN(Cc1cnc2nc(N)nc(N)c2n1)c1ccc(C(=O)NC(CCC(=O)NC(P(=O)(O)O)P(=O)(O)O)C(=O)O)cc1 (configuration not stated),–,–,> 100 µM (inactive),> 100 µM (inactive),59.8 µM (inactive),> 100 µM (inactive),6.47 µM (inactive),> 100 µM (inactive),36.7 µM (inactive),4.21 µM (inactive),8.34 µM (inactive),> 100 µM (inactive),29 µM (inactive),32.6 µM (inactive),83 µM (inactive),55.2 µM (inactive),9.18 µM (inactive),> 100 µM (inactive),45.3 µM (inactive),45.8 µM (inactive)
COc1ccc(C2C(Cl)C(=O)N2NC(=O)c2ccc(N)cc2)cc1OC (configuration not stated),16.6 µM (inactive),5.04 µM (inactive),11.9 µM (inactive),16.5 µM (inactive),15.9 µM (inactive),2 µM (inactive),2.53 µM (inactive),–,1.36 µM (inactive),3.12 µM (inactive),8.43 µM (inactive),12.5 µM (inactive),1.98 µM (inactive),7.8 µM (inactive),2.48 µM (inactive),9.95 µM (inactive),13.9 µM (inactive),17 µM (inactive),16.4 µM (inactive),19.1 µM (inactive)
CC(C)(C)C1=C(Br)C(OC(=O)C(F)(F)F)(C(C)(C)C)OP1(=O)c1ccccc1 (configuration not stated),27.8 µM (inactive),–,18.5 µM (inactive),23.8 µM (inactive),25.9 µM (inactive),36.5 µM (inactive),37 µM (inactive),23.7 µM (inactive),35.7 µM (inactive),25.5 µM (inactive),36.1 µM (inactive),65 µM (inactive),42.2 µM (inactive),37.9 µM (inactive),> 100 µM (inactive),39 µM (inactive),57.4 µM (inactive),79.3 µM (inactive),45.2 µM (inactive),> 100 µM (inactive)
O=C(CC(C(=O)c1ccc(F)cc1)c1ccsc1)c1cccs1 (configuration not stated),> 100 µM (inactive),–,> 100 µM (inactive),68.9 µM (inactive),> 100 µM (inactive),–,59.2 µM (inactive),> 100 µM (inactive),> 100 µM (inactive),> 100 µM (inactive),> 100 µM (inactive),36 µM (inactive),–,> 100 µM (inactive),> 100 µM (inactive),> 100 µM (inactive),> 100 µM (inactive),> 100 µM (inactive),> 100 µM (inactive),> 100 µM (inactive)
CCOC(=O)CC1c2ccc(O)cc2OC(=O)C1c1ccc([N+](=O)[O-])cc1 (configuration not stated),25.6 µM (inactive),–,15.7 µM (inactive),39.7 µM (inactive),20.2 µM (inactive),20.4 µM (inactive),35.2 µM (inactive),46.7 µM (inactive),21.5 µM (inactive),30.4 µM (inactive),21 µM (inactive),27.4 µM (inactive),18.6 µM (inactive),31 µM (inactive),38 µM (inactive),21.8 µM (inactive),63.5 µM (inactive),30.3 µM (inactive),48.9 µM (inactive),58.6 µM (inactive)
COc1ccc(C2SC(C)C(=O)N2c2nc(-c3nc(-c4ccc(Cl)cc4)cs3)cs2)cc1 (configuration not stated),–,> 100 µM (inactive),> 100 µM (inactive),> 100 µM (inactive),> 100 µM (inactive),> 100 µM (inactive),> 100 µM (inactive),> 100 µM (inactive),> 100 µM (inactive),> 100 µM (inactive),> 100 µM (inactive),> 100 µM (inactive),> 100 µM (inactive),> 100 µM (inactive),> 10 µM (inactive),> 100 µM (inactive),> 100 µM (inactive),> 100 µM (inactive),–,> 100 µM (inactive)
C=C(C)C1CC/C(C)=C/CC[C@]2(C)O[C@H]2CC/C(COC(C)=O)=C\[C@@H]1O (some centres not stated),> 50 µM (inactive),> 50 µM (inactive),17.9 µM (inactive),> 50 µM (inactive),28.8 µM (inactive),> 50 µM (inactive),> 50 µM (inactive),–,> 50 µM (inactive),11.1 µM (inactive),–,–,19.2 µM (inactive),> 50 µM (inactive),> 50 µM (inactive),> 50 µM (inactive),> 50 µM (inactive),> 50 µM (inactive),> 50 µM (inactive),> 50 µM (inactive)
[N-]=[N+]=C1CNC(=O)NC1=O,–,–,> 100 µM (inactive),> 100 µM (inactive),> 100 µM (inactive),> 100 µM (inactive),> 100 µM (inactive),> 100 µM (inactive),> 100 µM (inactive),> 100 µM (inactive),58.6 µM (inactive),> 100 µM (inactive),> 100 µM (inactive),> 100 µM (inactive),> 100 µM (inactive),> 100 µM (inactive),> 100 µM (inactive),> 100 µM (inactive),> 100 µM (inactive),> 100 µM (inactive)
Cc1ccc(-c2cc(-c3ccccc3)nc(N)n2)c(O)c1,> 90.6 µM (inactive),> 100 µM (inactive),> 100 µM (inactive),–,27.6 µM (inactive),> 64.1 µM (inactive),> 100 µM (inactive),–,–,2.09 µM (inactive),> 100 µM (inactive),> 100 µM (inactive),5.4 µM (inactive),> 60.7 µM (inactive),> 100 µM (inactive),> 100 µM (inactive),32.4 µM (inactive),> 60.1 µM (inactive),> 79.4 µM (inactive),> 100 µM (inactive)
S=c1c2cn[nH]c2nc2scc(-c3ccc(Cl)cc3)n12,–,10.5 µM (inactive),23.5 µM (inactive),17.3 µM (inactive),16.9 µM (inactive),–,16.7 µM (inactive),8.73 µM (inactive),> 10 µM (inactive),10.9 µM (inactive),17 µM (inactive),22.2 µM (inactive),24.9 µM (inactive),17.7 µM (inactive),18.1 µM (inactive),16.6 µM (inactive),23.6 µM (inactive),10.6 µM (inactive),–,14.3 µM (inactive)
